# Measurements from patent US12129312B2, “Peptide compound, application thereof and composition containing same” (priority 2017, dated 2024).
# Read-outs that look alike come from different tables or passages of the source. Square brackets hold non-standard residues; d marks the D form. Peptide text beside a SMILES is read from it. * marks the point of attachment. Hydrocinnamoyl = O=C(CCc1ccccc1)*; Tic = O=C(O)[C@@H]1Cc2ccccc2CN1; NMeL = CN[C@@H](CC(C)C)C(=O)O
# Target: T1, human Chemokine like receptor 1 (Homo sapiens, UniProt Q99788)
# T1 construct: host or cells: U2OS (Tango CMKLR1-bla U2OS)
# T1 sequence (Q99788 1-373): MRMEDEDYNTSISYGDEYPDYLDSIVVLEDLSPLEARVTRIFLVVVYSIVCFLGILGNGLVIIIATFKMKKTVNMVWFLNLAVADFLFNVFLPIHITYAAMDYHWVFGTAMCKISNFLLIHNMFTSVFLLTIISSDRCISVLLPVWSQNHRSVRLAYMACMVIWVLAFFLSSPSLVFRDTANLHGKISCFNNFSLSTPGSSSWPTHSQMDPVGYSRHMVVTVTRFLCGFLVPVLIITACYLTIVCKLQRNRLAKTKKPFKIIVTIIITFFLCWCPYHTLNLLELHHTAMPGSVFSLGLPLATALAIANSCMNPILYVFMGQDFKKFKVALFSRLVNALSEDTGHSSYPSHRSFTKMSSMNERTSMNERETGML
# Test: Activation of Tango CMKLR1-bla U2OS cells (beta-lactamase FRET reporter)
# Format: cell-based
# Conditions: read-out: EC50
# Procedure, shortened: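 Agonist mode in Tango CMKLR1-bla U2OS cells, 10000 cells/well seeded overnight, then 10-point 3-fold compound dilutions from 10 mM DMSO stock applied for 4 h at 37 °C, 5% CO2. Beta-lactamase reporter read with CCF4-AM FRET substrate; peptide (D-Tyr)-Phe-Leu-Pro-(D-Ser)-Gln-Phe-(D-Ala)-Tic-Ser served as positive control.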
Compound,EC50 (determination by the method of Effect Embodiment 1) [nM],"EC50 (Tango CMKLR1-bla U2OS cells, 4 hours incubation, four-parameter fit of activation rate) [nM]"
"CC(C)C[C@@H](C(=O)N1CCC[C@H]1C(=O)N[C@H](CO)C(=O)N[C@@H](CCC(N)=O)C(=O)N[C@@H](Cc1ccccc1)C(=O)N[C@H](C)C(=O)N1Cc2ccccc2C[C@H]1C(=O)N[C@@H](CO)C(=O)O)N(C)C(=O)[C@H](Cc1ccccc1)NC(=O)[C@@H](Cc1ccc(O)cc1)NC(=O)CCc1ccccc1 [YW-111, 3-phenylpropanoyl-(D-Tyr)-Phe-(NMe-Leu)-Pro-(D-Ser)-Gln-Phe-(D-Ala)-Tic-Ser-OH] (Hydrocinnamoyl-[dY]F[NMeL]P[dS]QF[dA][Tic]S-OH)",2,–
"CC(C)C[C@H](NC(=O)[C@H](Cc1ccccc1)NC(=O)[C@H](N)Cc1ccc(O)cc1)C(=O)N1CCC[C@H]1C(=O)N[C@H](CO)C(=O)N[C@@H](CCC(N)=O)C(=O)N[C@@H](Cc1ccccc1)C(=O)N[C@H](C)C(=O)N1Cc2ccccc2C[C@H]1C(=O)N[C@@H](CO)C(=O)O [YW-3, (D-Tyr)-Phe-Leu-Pro-(D-Ser)-Gln-Phe-(D-Ala)-Tic-Ser, reference compound] (H-[dY]FLP[dS]QF[dA][Tic]S-OH)",–,19
